Like-named read-outs stand apart in the source and are kept apart here.
Legend:
[1] = test system: TNFα production in LPS-stimulated human monocytes; assay: Cot Monocyte TNFα Cell Based Assay; conditions: Homo sapiens, Monocyte, read-out: EC50 TNF
In short: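 TR-FRET read-out of total secreted TNFα, normalized as % control (unstimulated = 0%, LPS-stimulated = 100%). Cells (5,000/well) were exposed to compound 1 h at 37 °C, then to 50 pg/ml LPS for a further 4 h.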

[2] = molecular target: T1, human Cot catalytic domain (30-397 amino acids) (Homo sapiens, UniProt P41279); assay: High Throughput Cot Biochemical Assay (KinEASE TR-FRET); conditions: Cot KinEASE TR-FRET (HTRF) biochemical assay, 400 μM ATP; read-out: IC50 HTRF
T1 construct: Purified recombinant human Cot catalytic domain (30-397 amino acids) was purchased from Cama Biosciences; purchased Cama Biosciences (so in the source)
In short: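 TR-FRET readout: Eu-labeled phospho-specific antibody binds XL665-tagged STK3 peptide after phosphorylation by Cot (aa 30-397, 5 nM). Conditions: 400 μM ATP, 1 μM peptide, MOPS pH 7.0 buffer with MgOAc, DTT, BSA, NP-40, glycerol; 0.1% DMSO.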

[3] = TNFα in LPS-stimulated human monocytes

T1 sequence (P41279 30-397): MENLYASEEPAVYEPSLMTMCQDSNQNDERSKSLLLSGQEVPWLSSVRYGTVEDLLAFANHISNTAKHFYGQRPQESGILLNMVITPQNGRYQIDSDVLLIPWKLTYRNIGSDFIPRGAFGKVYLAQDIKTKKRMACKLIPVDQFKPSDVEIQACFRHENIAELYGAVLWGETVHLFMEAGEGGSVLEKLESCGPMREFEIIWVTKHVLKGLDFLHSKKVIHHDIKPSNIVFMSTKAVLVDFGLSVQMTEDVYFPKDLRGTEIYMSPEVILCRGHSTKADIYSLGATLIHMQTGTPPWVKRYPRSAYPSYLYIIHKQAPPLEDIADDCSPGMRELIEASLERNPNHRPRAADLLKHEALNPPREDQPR

SMILES | EC50 [1, 3] | IC50 [2] | EC50 [1]
[2H][C@](Nc1cc(Cl)c2ncc(C#N)c(N[C@@H](CCC#N)c3ccccc3)c2c1)(c1ccc(F)cc1)c1cn(C2CC2)nn1 [Example 248, 8-chloro-4-(((S)-3-cyano-1-phenylpropyl)amino)-6-(((S)-(1-cyclopropyl-1H-1,2,3-triazol-4-yl)(4-fluorophenyl)methyl-d)amino)quinoline-3-carbonitrile] | > 10000 nM | 3200 nM | –
CC[C@@H](Nc1c(C#N)cnc2c(Cl)cc(N[C@H](c3cn(C4CC4)nn3)c3cc(C#N)ccc3Cl)cc12)c1ccccc1 [Example 258, 8-chloro-6-(((S)-(2-chloro-5-cyanophenyl)(1-cyclopropyl-1H-1,2,3-triazol-4-yl)methyl)amino)-4-(((R)-1-phenylpropyl)amino)quinoline-3-carbonitrile] | 651 nM | 44 nM | –
[2H][C@](Nc1cc(Cl)c2ncc(C#N)c(NCC3(C4CC4)CCC3)c2c1)(c1ccc(F)cc1)c1cn(C2CC2)nn1 [Example 260, (S)-8-chloro-6-(((1-cyclopropyl-1H-1,2,3-triazol-4-yl)(4-fluorophenyl)methyl-d)amino)-4-(((1-cyclopropylcyclobutyl)methyl)amino)quinoline-3-carbonitrile] | 584 nM | 33 nM | –
[2H][C@](Nc1cc(Cl)c2ncc(C#N)c(NC[Si](C)(C)C)c2c1)(c1ccc(F)cc1)c1cn(C2CC2)nn1 [Example 262, (S)-8-chloro-6-(((1-cyclopropyl-1H-1,2,3-triazol-4-yl)(4-fluorophenyl)methyl-d)amino)-4-(((trimethylsilyl)methyl)amino) quinoline-3-carbonitrile] | – | 10 nM | 259 nM
[2H]C(Nc1cc(Cl)c2ncc(C#N)c(NCC(C)(C)C)c2c1)(c1ccc(F)cc1)c1nnnn1Cc1ccc(OC)cc1 (stereo not drawn) [Example 263, 8-chloro-6-(((4-fluorophenyl) (1-(4-methoxybenzyl)-1H-tetrazol-5-yl)methyl-d)amino)-4-(neopentylamino)quinoline-3-carbonitrile] | > 10000 nM | 733 nM | –
N#Cc1cnc2c(Cl)cc(N[C@@H](c3cccc(C(F)(F)F)c3)c3cn(C4CC4)nn3)cc2c1Nc1cnc(F)c(F)c1 [Example 264, (S)-8-chloro-6-(((1-cyclopropyl-1H-1,2,3-triazol-4-yl)(3-(trifluoromethyl)phenyl)methyl)amino)-4-((5,6-difluoropyridin-3-yl)amino)quinoline-3-carbonitrile] | 567 nM | 45 nM | –
N#Cc1cnc2c(Cl)cc(N[C@@H](c3cccc(F)c3)c3cn(C4CC4)nn3)cc2c1Nc1cnc(F)c(F)c1 [Example 265, (S)-8-chloro-6-(((1-cyclopropyl-1H-1,2,3-triazol-4-yl)(3-fluorophenyl)methyl)amino)-4-((5,6-difluoropyridin-3-yl)amino)quinoline-3-carbonitrile] | 471 nM | 12 nM | –
N#Cc1cnc2c(Cl)cc(N[C@@H](c3cccc(Cl)c3)c3cn(C4CC4)nn3)cc2c1Nc1cnc(F)c(F)c1 [Example 266, (S)-8-chloro-6-(((3-chlorophenyl)(1-cyclopropyl-1H-1,2,3-triazol-4-yl)methyl)amino)-4-((5,6-difluoropyridin-3-yl)amino)quinoline-3-carbonitrile] | 424 nM | 16 nM | –
[2H][C@](Nc1cc(Cl)c2ncc(C#N)c(NCCC(C)C)c2c1)(c1ccc(F)cc1)c1cn(C2CC2)nn1 [Example 268, (S)-8-chloro-6-(((1-cyclopropyl-1H-1,2,3-triazol-4-yl)(4-fluorophenyl)methyl-d)amino)-4-(isopentylamino)quinoline-3-carbonitrile] | 2890 nM | 166 nM | –
[2H][C@](Nc1cc(Cl)c2ncc(C#N)c(NCCC3CC3)c2c1)(c1ccc(F)cc1)c1cn(C2CC2)nn1 [Example 269, (S)-8-chloro-6-(((1-cyclopropyl-1H-1,2,3-triazol-4-yl)(4-fluorophenyl)methyl-d)amino)-4-((2-cyclopropylethyl)amino)quinoline-3-carbonitrile] | 4520 nM | 253 nM | –
[2H][C@](Nc1cc(Cl)c2ncc(C#N)c(NCCc3ccccn3)c2c1)(c1ccc(F)cc1)c1cn(C2CC2)nn1 [Example 270, (S)-8-chloro-6-(((1-cyclopropyl-1H-1,2,3-triazol-4-yl)(4-fluorophenyl)methyl-d)amino)-4-((2-(pyridin-2-yl)ethyl)amino)quinoline-3-carbonitrile] | 2280 nM | 96 nM | –
[2H][C@](Nc1cc(Cl)c2ncc(C#N)c(NCCc3cccnc3)c2c1)(c1ccc(F)cc1)c1cn(C2CC2)nn1 [Example 271, (S)-8-chloro-6-(((1-cyclopropyl-1H-1,2,3-triazol-4-yl)(4-fluorophenyl)methyl-d)amino)-4-((2-(pyridin-3-yl)ethyl)amino)quinoline-3-carbonitrile] | 4560 nM | 434 nM | –

Further lines, with some results ahead:

EC50 [1, 3] | IC50 [2] | SMILES | EC50 [1]
21 nM | 1 nM | [2H][C@](Nc1cc(Cl)c2ncc(C#N)c(N[C@H](CCC#N)c3ccccc3)c2c1)(c1ccc(F)cc1)c1cn(C2CC2)nn1 [Example 249, 8-chloro-4-(((R)-3-cyano-1-phenylpropyl)amino)-6-(((S)-(1-cyclopropyl-1H-1,2,3-triazol-4-yl)(4-fluorophenyl)methyl-d)amino)quinoline-3-carbonitrile] | –
80 nM | 5 nM | [2H][C@](Nc1cc(Cl)c2ncc(C#N)c(N[C@H](CC)c3ccccc3)c2c1)(c1cccc(C#N)c1)c1cn(C(C)(C)C)nn1 [Example 252, 6-(((S)-(1-(tert-butyl)-1H-1,2,3-triazol-4-yl)(3-cyanophenyl)methyl-d)amino)-8-chloro-4-(((R)-1-phenylpropyl)amino)quinoline-3-carbonitrile] | –
214 nM | 16 nM | [2H][C@](Nc1cc(Cl)c2ncc(C#N)c(N[C@H](CC)c3ccccc3)c2c1)(c1ccc(F)cc1)c1cn(C(C)(C)C)nn1 [Example 253] | –
42 nM | 3 nM | [2H][C@](Nc1cc(F)c2ncc(C#N)c(NC(CCC#N)c3ccccc3)c2c1)(c1cccc(C#N)c1)c1cn(C2CC2)nn1 (stereo partly drawn) [Example 254, 4-((3-cyano-1-phenylpropyl)amino)-6-(((S)-(3-cyanophenyl) (1-cyclopropyl-1H-1,2,3-triazo1-4-yl)methyl-d)amino)-8-fluoroquinoline-3-carbonitrile] | –
62 nM | 5 nM | [2H][C@](Nc1cc(F)c2ncc(C#N)c(NC(CCC#N)c3ccccc3)c2c1)(c1ccc(F)cc1)c1cn(C2CC2)nn1 (stereo partly drawn) [Example 255, 4-((3-cyano-1-phenylpropyl)amino)-6-(((S)-(1-cyclopropyl-1H-1,2,3-triazol-4-yl)(4-fluorophenyl)methyl-d)amino)-8-fluoroquinoline-3-carbonitrile] | –
121 nM | 3 nM | [2H][C@](Nc1cc(F)c2ncc(C#N)c(NCC(C)(C)C)c2c1)(c1cccc(C#N)c1)c1cn(C2CC2)nn1 [Example 256, (S)-6-(((3-cyanophenyl)(1-cyclopropyl-1H-1,2,3-triazol-4-yl)methyl-d)amino)-8-fluoro-4-(neopentylamino)quinoline-3-carbonitrile] | –
93 nM | 3 nM | [2H][C@](Nc1cc(F)c2ncc(C#N)c(N[C@H](CC)c3ccccc3)c2c1)(c1cccc(C#N)c1)c1cn(C2CC2)nn1 [Example 257, 6-(((S)-(3-cyanophenyl)(1-cyclopropyl-1H-1,2,3-triazol-4-yl)methyl-d)amino)-8-fluoro-4-(((R)-1-phenylpropyl)amino)quinoline-3-carbonitrile] | –
87 nM | 5 nM | [2H][C@](Nc1cc(Cl)c2ncc(C#N)c(N[C@H](CCO)c3ccccc3)c2c1)(c1cccc(C#N)c1)c1cn(C2CC2)nn1 [Example 259, 8-chloro-6-(((3-cyanophenyl)(1-cyclopropyl-1H-1,2,3-triazol-4-yl)methyl-d)amino)-4-(((R)-3-hydroxy-1-phenylpropyl)amino)quinoline-3-carbonitrile] | –
194 nM | 7 nM | [2H][C@](Nc1cc(Cl)c2ncc(C#N)c(NC(CC#N)c3ccccc3)c2c1)(c1ccc(F)cc1)c1cn(-c2cccnc2)nn1 (stereo partly drawn) [Example 267, 8-chloro-4-((2-cyano-1-phenylethyl)amino)-6-(((S)-(4-fluorophenyl)(1-(pyridin-3-yl)-1H-1,2,3-triazol-4-yl)methyl-d)amino)quinoline-3-carbonitrile] | –
215 nM | 12 nM | CC[C@@H](Nc1c(C#N)cnc2c(Cl)cc(N[C@@H](c3cccc(F)c3)c3cn(C4CC4)nn3)cc12)c1ccccc1 [Example 272, 8-chloro-6-(((S)-(1-cyclopropyl-1H-1,2,3-triazol-4-yl)(3-fluorophenyl)methyl)amino)-4-(((R)-1-phenylpropyl)amino)quinoline-3-carbonitrile] | –
178 nM | 13 nM | CC[C@@H](Nc1c(C#N)cnc2c(Cl)cc(N[C@@H](c3cccc(Cl)c3)c3cn(C4CC4)nn3)cc12)c1ccccc1 [Example 273, 8-chloro-6-(((S)-(3-chlorophenyl)(1-cyclopropyl-1H-1,2,3-triazol-4-yl)methyl)amino)-4-(((R)-1-phenylpropyl)amino)quinoline-3-carbonitrile] | –
254 nM | 5 nM | [2H][C@](Nc1cc(Cl)c2ncc(C#N)c(Nc3cccc(Cl)c3)c2c1)(c1cccc(C#N)c1)c1cn(C2CC2)nn1 [Example 274, (S)-8-chloro-4-((3-chlorophenyl)amino)-6-(((3-cyanophenyl)(1-cyclopropyl-1H-1,2,3-triazol-4-yl)methyl-d)amino)quinoline-3-carbonitrile] | –

— patent US10316017B2, “COT modulators and methods of use thereof” (Gilead Sciences, Inc., priority 2015, dated 2019)
